Here are results for 9 molecules from ChEMBL document CHEMBL5331081, “Discovery of cysteine-targeting covalent histone methyltransferase inhibitors” (Eur J Med Chem, 2023).

The subject of data set [1] is PBMC. The experiment in a line: Anticancer activity against mouse PBMC cells harboring NUP98-NSD1 fusion protein assessed as cell growth inhibition measured after 7 days by MTT assay. Format: functional. Particulars: 168 h, time 7 day. On the technique in general: Tetrazolium dyes change colour on reduction, which living cells bring about.
For data set [2], the system named is PBMC. The experiment in a line: Anticancer activity against mouse PBMC cells harboring NUP98-NSD1 fusion protein assessed as cell growth inhibition measured after 3 days by MTT assay. In kind it is functional. Particulars: 72 h, time 3 day.
The subject of data set [3] is MV4-11. The experiment in a line: Anticancer activity against human MV4-11 cells assessed as cell growth inhibition. Format: functional.
Data set [4] in a line: Selectivity index, ratio of GI50 for human MV4-11 cells harboring MLL-AF4 fusion protein to ratio of GI50 for human HL-60 cells. In kind it is functional.
In data set [5] the test system is HL-60. The experiment in a line: Anticancer activity against human HL-60 cells assessed as cell growth inhibition. Format: functional.
The target in data set [6] is Histone-lysine N-methyltransferase EZH2 (Homo sapiens, UniProt Q15910). Nature of the data set: Inhibition of EZH2 (unknown origin).
Data set [7] addresses Menin/Histone-lysine N-methyltransferase MLL (Homo sapiens, UniProt O00255+Q03164). Nature of the data set: Inhibition of menin (unknown origin)/MLL (unknown origin) protein-protein interaction by fluorescence polarization assay. On the technique in general: Polarisation of emitted light reports the rotation of a fluorescent probe.
Data set [8] is described as follows: Reduction in H3K9me2 level in human MDA-MB-231 cells incubated for 48 hrs by ChIP assay. Format: functional, cell-based. Particulars: MDA-MB-231, 48 h.
Data set [9] is described as follows: Anticancer activity against human MOLM16 cells assessed as cell growth inhibition measured after 7 days by WST-8 assay. Format: functional, MOLM-16. The settings on record: MOLM16, 168 h, time 7 day.
Data set [10] has as its system MV4-11. The experiment in a line: Anticancer activity against human MV4-11 cells harboring MLL-AF4 fusion protein assessed as cell growth inhibition measured after 7 days by WST-8 assay. Format: functional. The settings on record: MV4-11, 168 h, pooled result: one value given for 6 cell lines, strains, targets or settings, time 7 day.
Data set [11] concerns K562. The experiment in a line: Anticancer activity against human K562 cells assessed as cell growth inhibition measured after 7 days by WST-8 assay. Format: functional. Particulars: K562, 168 h, time 7 day.
For data set [12], the system named is HL-60. The experiment in a line: Anticancer activity against human HL-60 cells assessed as cell growth inhibition measured after 7 days by WST-8 assay. Particulars: HL-60, 168 h, time 7 day. Format: functional.
Data set [13] deals with SKM-1. The experiment in a line: Anticancer activity against human SKM-1 cells assessed as cell growth inhibition measured after 7 days by WST-8 assay. In kind it is functional. Particulars: SKM-1, 168 h, time 7 day.
Data set [14] can be described thus: in vivo. The settings on record: CD-1, mouse, po, 100 mg/kg.
The test system of data set [15] is NCI-H1299. Nature of the data set: Anticancer activity against human NCI-H1299 cells assessed as cell growth inhibition measured after 48 hrs by CCK-8 assay. In kind it is functional.
Data set [16] concerns A549. Nature of the data set: Anticancer activity against human A549 cells assessed as cell growth inhibition measured after 48 hrs by CCK-8 assay. In kind it is functional.
Data set [17] deals with MDA-MB-231. Nature of the data set: Anticancer activity against human MDA-MB-231 cells assessed as cell growth inhibition measured after 48 hrs by CCK-8 assay. In kind it is functional.
Data set [18] concerns MCF7. The experiment in a line: Anticancer activity against human MCF7 cells assessed as cell growth inhibition measured after 48 hrs by CCK-8 assay. Format: functional.

Molecules are shown by their SMILES. pIC50: −log10 of the molar value. Where only a bound is given, the exact number is not on record here.

Sequence of Menin/Histone-lysine N-methyltransferase MLL (O00255 whole entry): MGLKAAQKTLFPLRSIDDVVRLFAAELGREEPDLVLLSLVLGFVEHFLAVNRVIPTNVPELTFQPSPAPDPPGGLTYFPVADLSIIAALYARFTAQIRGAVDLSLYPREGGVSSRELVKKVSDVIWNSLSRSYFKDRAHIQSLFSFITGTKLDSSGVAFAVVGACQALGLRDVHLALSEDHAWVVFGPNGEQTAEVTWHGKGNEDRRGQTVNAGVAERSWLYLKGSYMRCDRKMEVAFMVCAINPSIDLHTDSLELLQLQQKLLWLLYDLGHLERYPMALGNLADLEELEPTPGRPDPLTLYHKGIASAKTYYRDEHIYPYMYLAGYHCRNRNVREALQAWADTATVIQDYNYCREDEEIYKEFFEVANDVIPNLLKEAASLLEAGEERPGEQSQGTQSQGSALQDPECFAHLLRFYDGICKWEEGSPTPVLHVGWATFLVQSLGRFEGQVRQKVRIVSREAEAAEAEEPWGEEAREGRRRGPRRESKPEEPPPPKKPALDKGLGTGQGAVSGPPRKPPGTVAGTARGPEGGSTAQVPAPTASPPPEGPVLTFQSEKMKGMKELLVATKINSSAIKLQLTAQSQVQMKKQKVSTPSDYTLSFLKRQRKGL
Sequence of Menin/Histone-lysine N-methyltransferase MLL (Q03164 1-2718 limits assumed): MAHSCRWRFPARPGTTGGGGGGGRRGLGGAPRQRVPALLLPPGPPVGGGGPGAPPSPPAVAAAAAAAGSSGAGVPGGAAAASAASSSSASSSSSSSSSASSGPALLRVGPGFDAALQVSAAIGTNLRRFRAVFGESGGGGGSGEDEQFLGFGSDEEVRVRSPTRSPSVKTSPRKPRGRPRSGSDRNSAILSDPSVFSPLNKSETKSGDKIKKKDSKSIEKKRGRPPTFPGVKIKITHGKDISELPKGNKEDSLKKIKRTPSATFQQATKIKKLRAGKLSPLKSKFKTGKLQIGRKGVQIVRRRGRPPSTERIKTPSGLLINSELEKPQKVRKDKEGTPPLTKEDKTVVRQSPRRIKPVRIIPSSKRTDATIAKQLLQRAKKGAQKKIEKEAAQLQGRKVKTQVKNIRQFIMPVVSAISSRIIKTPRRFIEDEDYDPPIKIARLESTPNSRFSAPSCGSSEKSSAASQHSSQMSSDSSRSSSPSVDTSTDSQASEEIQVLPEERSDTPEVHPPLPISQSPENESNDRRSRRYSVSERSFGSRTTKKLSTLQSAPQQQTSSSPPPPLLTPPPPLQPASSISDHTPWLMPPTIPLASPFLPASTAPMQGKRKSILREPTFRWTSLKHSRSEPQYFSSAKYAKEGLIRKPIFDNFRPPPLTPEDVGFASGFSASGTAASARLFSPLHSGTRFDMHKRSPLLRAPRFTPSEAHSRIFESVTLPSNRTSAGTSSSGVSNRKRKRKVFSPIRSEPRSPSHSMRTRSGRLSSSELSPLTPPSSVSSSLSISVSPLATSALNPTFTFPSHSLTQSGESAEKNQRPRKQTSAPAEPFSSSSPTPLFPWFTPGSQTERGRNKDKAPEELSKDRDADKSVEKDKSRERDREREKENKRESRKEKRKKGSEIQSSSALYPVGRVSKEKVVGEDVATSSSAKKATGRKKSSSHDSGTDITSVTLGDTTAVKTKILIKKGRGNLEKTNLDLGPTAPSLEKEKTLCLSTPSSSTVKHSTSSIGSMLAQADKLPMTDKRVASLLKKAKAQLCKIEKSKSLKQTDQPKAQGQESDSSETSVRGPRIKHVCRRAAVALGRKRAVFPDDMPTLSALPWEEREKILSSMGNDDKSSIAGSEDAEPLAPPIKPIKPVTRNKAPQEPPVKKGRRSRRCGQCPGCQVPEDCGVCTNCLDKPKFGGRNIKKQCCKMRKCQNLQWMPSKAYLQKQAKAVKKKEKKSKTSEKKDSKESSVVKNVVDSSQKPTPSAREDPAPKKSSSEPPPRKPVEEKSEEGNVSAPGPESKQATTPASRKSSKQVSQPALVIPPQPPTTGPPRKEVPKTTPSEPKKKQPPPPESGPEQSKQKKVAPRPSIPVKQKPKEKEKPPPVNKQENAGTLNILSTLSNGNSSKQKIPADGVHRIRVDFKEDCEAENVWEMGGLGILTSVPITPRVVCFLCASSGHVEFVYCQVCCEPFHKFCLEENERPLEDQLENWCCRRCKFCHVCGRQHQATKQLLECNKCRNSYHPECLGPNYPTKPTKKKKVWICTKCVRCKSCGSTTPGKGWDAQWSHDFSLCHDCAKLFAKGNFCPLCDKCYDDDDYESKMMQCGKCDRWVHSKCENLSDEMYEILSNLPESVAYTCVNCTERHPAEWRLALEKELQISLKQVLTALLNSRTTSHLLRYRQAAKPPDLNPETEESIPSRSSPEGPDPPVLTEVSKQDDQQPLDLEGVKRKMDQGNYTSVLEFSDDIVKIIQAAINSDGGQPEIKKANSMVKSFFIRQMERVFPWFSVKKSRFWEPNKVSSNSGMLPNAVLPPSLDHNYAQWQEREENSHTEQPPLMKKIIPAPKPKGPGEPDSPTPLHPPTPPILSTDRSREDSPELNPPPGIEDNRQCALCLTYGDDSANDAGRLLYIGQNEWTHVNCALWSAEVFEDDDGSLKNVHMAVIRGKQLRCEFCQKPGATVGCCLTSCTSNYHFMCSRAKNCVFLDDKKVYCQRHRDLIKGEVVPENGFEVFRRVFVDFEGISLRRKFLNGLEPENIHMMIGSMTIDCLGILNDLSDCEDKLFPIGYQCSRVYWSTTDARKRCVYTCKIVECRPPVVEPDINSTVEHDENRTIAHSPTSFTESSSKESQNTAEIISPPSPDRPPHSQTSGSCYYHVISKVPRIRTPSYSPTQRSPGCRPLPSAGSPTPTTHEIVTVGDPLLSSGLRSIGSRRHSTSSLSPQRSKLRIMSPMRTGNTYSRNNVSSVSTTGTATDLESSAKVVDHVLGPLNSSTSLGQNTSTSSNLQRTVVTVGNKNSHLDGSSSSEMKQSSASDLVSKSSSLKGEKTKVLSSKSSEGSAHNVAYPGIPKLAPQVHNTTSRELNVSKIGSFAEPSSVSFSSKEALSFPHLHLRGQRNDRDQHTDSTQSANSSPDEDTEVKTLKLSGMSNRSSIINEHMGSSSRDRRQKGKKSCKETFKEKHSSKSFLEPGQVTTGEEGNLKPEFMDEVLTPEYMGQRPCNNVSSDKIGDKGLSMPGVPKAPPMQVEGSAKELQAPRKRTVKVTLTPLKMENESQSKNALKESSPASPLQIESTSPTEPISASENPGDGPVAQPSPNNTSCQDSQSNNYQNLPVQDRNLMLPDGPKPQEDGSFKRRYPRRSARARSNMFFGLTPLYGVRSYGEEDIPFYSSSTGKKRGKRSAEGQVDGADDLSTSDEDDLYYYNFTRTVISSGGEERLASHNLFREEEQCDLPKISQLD
Sequence of Menin/Histone-lysine N-methyltransferase MLL (Q03164 2719-3969 limits assumed): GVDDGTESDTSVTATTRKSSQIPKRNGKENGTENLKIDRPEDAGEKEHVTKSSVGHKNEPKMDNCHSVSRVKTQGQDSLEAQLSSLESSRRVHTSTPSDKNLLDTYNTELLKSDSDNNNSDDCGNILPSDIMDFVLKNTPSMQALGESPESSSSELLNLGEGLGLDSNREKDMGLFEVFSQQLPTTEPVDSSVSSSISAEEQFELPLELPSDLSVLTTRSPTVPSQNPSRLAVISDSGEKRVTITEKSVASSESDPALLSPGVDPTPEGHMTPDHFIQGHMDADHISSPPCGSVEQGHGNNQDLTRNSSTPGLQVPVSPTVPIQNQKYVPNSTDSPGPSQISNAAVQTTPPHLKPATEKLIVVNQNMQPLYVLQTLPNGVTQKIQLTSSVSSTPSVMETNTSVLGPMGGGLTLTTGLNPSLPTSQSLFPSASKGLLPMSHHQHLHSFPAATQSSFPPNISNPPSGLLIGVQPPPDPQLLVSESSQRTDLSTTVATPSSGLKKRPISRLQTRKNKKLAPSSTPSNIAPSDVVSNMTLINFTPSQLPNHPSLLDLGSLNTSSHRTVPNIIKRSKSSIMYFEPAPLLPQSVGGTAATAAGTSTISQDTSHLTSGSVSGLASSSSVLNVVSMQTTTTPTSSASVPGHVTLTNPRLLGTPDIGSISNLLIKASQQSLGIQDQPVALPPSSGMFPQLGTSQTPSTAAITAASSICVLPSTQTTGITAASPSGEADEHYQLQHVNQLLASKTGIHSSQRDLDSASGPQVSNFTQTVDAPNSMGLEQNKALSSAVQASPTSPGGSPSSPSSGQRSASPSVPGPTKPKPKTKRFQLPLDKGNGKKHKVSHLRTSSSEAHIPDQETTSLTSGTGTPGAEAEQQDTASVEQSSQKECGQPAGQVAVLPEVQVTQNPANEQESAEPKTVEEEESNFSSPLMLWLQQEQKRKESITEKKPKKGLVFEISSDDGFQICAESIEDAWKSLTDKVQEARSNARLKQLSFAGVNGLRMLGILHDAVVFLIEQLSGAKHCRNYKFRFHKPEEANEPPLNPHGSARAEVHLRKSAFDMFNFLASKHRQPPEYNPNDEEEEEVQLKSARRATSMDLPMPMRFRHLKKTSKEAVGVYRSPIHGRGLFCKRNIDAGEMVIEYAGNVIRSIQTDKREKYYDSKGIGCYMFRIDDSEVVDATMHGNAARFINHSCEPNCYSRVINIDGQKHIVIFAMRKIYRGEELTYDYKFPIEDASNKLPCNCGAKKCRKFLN

`CC1CN1c1cc(O)c2nc(N)sc2c1` (stereo unspecified): the GI50 (usually the concentration at which growth is held to half of that of the control) is 870 nM in data set [1] and 1300 nM in [2].

Take `C=CC(=O)N1CC(S(=O)(=O)c2ccc(N3CC(CN4CCC([C@@](C#N)(c5cccc(F)c5)[C@H]5CCC[C@@H]5NC(=O)OC)CC4)C3)cc2)C1`: the GI50 in data set [3] turned out to be 6 nM; in [5], 3200 nM. Moreover, the RatioGI50 in data set [4] is more than 500.

As to `C=CC(=O)Nc1cc(-c2ccc(N3CCNCC3)cc2)cc(C(=O)NCc2c(CC)cc(C)[nH]c2=O)c1C`, in data set [6], the pIC50 (commonly the IC50 on a negative log10 scale, so that one unit is a factor of ten) is 7.33.

For `COC(=O)N[C@H]1CCC[C@@H]1[C@](C#N)(c1cccc(F)c1)C1CCN(CC2CN(c3ccc(S(=O)(=O)C4CCC4)cc3)C2)CC1`, the GI50 in [3] turned out to be 210 nM. In [7], this molecule gave a pIC50 of 8.15.

Consider `COc1cc2nc(N3CCCN(C)CC3)nc(NC3CCN(Cc4ccccc4)CC3)c2cc1OC`, for which, in data set [8], the pIC50 is 6.30.

As for `COC(=O)N[C@H]1CCC[C@@H]1[C@](C#N)(c1cccc(F)c1)C1CCN(CC2CN(c3ccc(S(=O)(=O)C4CN(C(=O)/C=C/CN(C)C)C4)cc3)C2)CC1`, the GI50 turned out to be 900 nM in data set [9]; 2.3 nM in [10]; 900 nM in data set [11]; 900 nM in data set [12]; 900 nM in [13]. In [7], this molecule gave a pIC50 of 8.52.

Take `CC1(C)CN=C(N2CCN(c3ncnc4sc5c(c34)CCCC5)CC2)S1`: the bioavailability (usually the share of a dose that reaches the circulation, judged against a reference dose that is usually intravenous) in data set [14] turned out to be 77%.

With `COc1cc2c(NC3CCN(C(C)C)CC3)nc(C3CCCCC3)nc2cc1OCCCN1CCCC1`, the pIC50 in data set [8] was 7.09.

`O=C(CCl)Nc1ccc(S(=O)(=O)c2ccc(NC(=O)CCl)cc2)cc1`: the GI50 was found to be 684 nM in data set [15], 702 nM in [16], 597 nM in data set [17] and 413 nM in data set [18].
